Measurements from patent publication EP1743640A1, “Use of substituted pyrazoline compounds for the preparation of paediatric medicaments” (LABORATORIOS DEL DR. ESTEVE, S.A., priority 2005, dated 2007).

Key:
cannabinoid receptors [1] = assay: Mouse tetrad model, antagonistic effect against Win 55212-2; format: in vivo, Male NMRI mice; design: unit not given here; settings: 5 mg/kg i.v. prior to Win 55212-2 in a dose of 1,25mg/kg i.v.
Description: (§1) Substances with affinity for cannabinoid receptors are known to produce a wide range of pharmacological effects. It is also known that intravenous administration of a substance with affinity for cannabinoid receptors in mice produces analgesia , hypothermia, sedation and catalepsy. Individually, none of these effects can be considered as proof that a tested substance has affinity for cannabinoid-receptors, since all of these effects are common for various classes of centrally active agents. However, substances, which show all of these effects, i.e. substances that are active in this so-called tetrad model are considered to have affinity for the cannabinoid receptors. It has further been shown that cannabinoid receptor antagonists are higly effective in blocking the effects of a cannabinoid agonist in the mouse tetrad model.
(§2) The tetrad model is described, for example, in the publication of A. C. Howlett et al, Intemational Union of Pharmacology XXVII. Classification of Cannabinoid Receptors, Pharmacol Rev 54, 161-202 , 2002 and David R. Compton et al., "In-vivo Characterization of a Specific Cannabinoid Receptor Antagonist (SR141716A) :Inhibition of Tetrahydrocannbinol- induced Responses and Apparent Agonist Activity", J. Pharmacol. Exp. Ther. 277 , 2, 586-594, 1996. The corresponding parts of the description are hereby incorporated by reference.
(§3) Male NMRI mice with a weight of 20-30 g (Harlan, Barcelona, Spain) are used in all of the following experiments.
(§4) Before testing in the behavioral procedures given below, mice are acclimatized to the experimental setting. Pre-Treatment control values are determined for analgesia hot plate latency (in seconds), rectal temperature, sedation and catalepsy.
(§5) In order to determine the agonistic activty of the substance to be tested, the mice are injected intravenously with the substance to be tested or the vehicle alone. 15 minutes after injection, latency in hot plate analgesia is measured. Rectal temperature, sedation and catalepsy are measured 20 minutes after injection.
In order to determine the antagonistic activity the identical procedure is used as for the determination of the agonistic effects, but with the difference that the substance to be evaluated for its antagonistic activity is injectected 5 minutes before the intravenous injection of 1.25 mg/kg Win-55,212 a known cannabinoid-receptor agonist.
(§6) The hot plate analgesia is determined according to the method described in Woolfe D. et al. "The evaluation of analgesic action of pethidine hydrochloride (Demerol)", J. Pharmacol. Exp. Ther. 80, 300-307,1944. The respective description is hereby incorporated by reference and forms part of the present disclosure.
(§7) The mice are placed on a hot plate (Harvard Analgesimeter) at 55 ± 0.5 °C until they show a painful sensation by licking their paws or jumping and the time for these sensations to occur is recorded. This reading is considered the basal value (B). The maximum time limit the mice are allowed to remain on the hot plate in absence of any painful response is 40 seconds in order to prevent skin damage. This period is called the cut-off time (PC).
(§8) Fifteen minuts after the administration of the substance to be tested, the mice are again placed on the hot plate and the afore described procedure is repeated. This period is called the post-treatment reading (PT).
(§9) The degree of analgesia is calculated from the formula : %MPE of Analgesia = (PT-B)/(PC-B) × 100 [formula]
(§10) Sedation and ataxia is determined according to the method described in Desmet L. K. C. et al. "Anticonvulsive properties of Cinarizine and Flunarizine in Rats and Mice", Arzneim. -Forsch. (Frug Res) 25, 9, 1975. The respective description is hereby incorporated by reference and forms part of the present disclosure.
The chosen scoring system is • 0: no ataxia; • 1: doubful; • 2: obvious calmness and quiet; • 3 pronounced ataxia; prior to as well as after treatment. […]

CB1-Receptor = target: T1, CB1-Receptor (Homo sapiens, UniProt P21554); assay: In-vitro determination of affinity to CB1 receptor (radioligand [3H]-CP55940); format: binding
T1 construct: purchased Receptor Biology, Inc
T1 sequence (P21554 whole entry): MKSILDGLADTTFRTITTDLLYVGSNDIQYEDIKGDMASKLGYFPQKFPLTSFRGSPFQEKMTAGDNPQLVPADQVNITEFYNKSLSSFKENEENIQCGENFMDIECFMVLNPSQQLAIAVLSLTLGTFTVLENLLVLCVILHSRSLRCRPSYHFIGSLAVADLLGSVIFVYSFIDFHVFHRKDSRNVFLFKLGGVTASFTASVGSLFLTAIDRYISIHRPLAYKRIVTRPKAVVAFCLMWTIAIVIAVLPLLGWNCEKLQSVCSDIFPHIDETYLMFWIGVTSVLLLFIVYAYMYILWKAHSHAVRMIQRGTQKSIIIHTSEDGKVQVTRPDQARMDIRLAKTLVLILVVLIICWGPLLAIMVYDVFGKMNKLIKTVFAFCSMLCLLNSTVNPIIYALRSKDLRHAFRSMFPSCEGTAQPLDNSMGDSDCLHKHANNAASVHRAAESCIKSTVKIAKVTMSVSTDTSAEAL
Procedure: (§11) I. In-vitro determination of affinity to CB1/CB2-Receptors
(§12) The in-vitro determination of the affinity of the substituted pyrazoline compounds to CB1/CB2-Rezeptors is carried out as described in the publication of Ruth A. Ross, Heather C. Brockie et al., "Agonist-inverse agonist characterization at CB1 and CB2 cannabinoid receptors of L-759633, L759656 and AM630", British Journal of Pharmacology, 126, 665-672, (1999), whereby the transfected human CB1 and CB2 receptors of Receptor Biology, Inc. are used. The radioligand used for both receptors is [^3H]-CP55940. The respective parts of the description is hereby incorporated by reference and forms part of the present disclosure.

CB2-Receptor = target: T2, CB2-Receptor (Homo sapiens, UniProt P34972); assay: In-vitro determination of affinity to CB2 receptor (radioligand [3H]-CP55940); format: binding
T2 construct: purchased Receptor Biology, Inc
T2 sequence (P34972 whole entry): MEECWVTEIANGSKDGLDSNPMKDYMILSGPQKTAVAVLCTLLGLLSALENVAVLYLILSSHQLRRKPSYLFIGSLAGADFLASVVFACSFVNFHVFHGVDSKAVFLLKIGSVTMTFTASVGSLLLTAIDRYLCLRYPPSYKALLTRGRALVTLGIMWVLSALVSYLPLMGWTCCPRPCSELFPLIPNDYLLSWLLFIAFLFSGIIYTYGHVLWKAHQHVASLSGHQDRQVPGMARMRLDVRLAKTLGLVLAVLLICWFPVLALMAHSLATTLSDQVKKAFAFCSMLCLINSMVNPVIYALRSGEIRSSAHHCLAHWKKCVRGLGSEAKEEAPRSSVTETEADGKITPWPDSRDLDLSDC
Procedure: as §11, §12

cannabinoid receptors [2] = assay: Mouse tetrad model, agonistic effect; format: in vivo, Male NMRI mice; design: key to Agonistic effect D: Sedation: % sedation = mean score (0-3 scale)/3 × 100; Agonistic effect A: Hot-Plate test / Agonistic effect B: Hypothermia / Agonistic effect C: Catalepsy: unit not given here; settings: 5 mg/kg i.v.
Description: as §1, §2, §3, §4, §5, §6, §7, §8, §9, §10
The chosen scoring system is • 0: no ataxia; • 1: doubful; • 2: obvious calmness and quiet; • 3 pronounced ataxia; prior to as well as after treatment.
The percentage of sedation is determined according to the formula: %of sedation = arithmetic mean/3 × 100 [formula]
Hypothermia is determined according to the method described in David R. Compton et al. "In-vivo Characterization of a Specific Cannabinoid Receptor Antagonist (SR141716A) Inhibition of Tetrahydrocannbinol- induced Responses and Apparent Agonist Activity", J. Pharmacol Exp Ther. 277 , 2, 586-594, 1996. […]

Row | SMILES | Antagonistic Effect A: Hot-Plate test (cannabinoid receptors [1]) | Antagonistic Effect B: Hypothermia (cannabinoid receptors [1]) | Antagonistic Effect C: Catalepsy (cannabinoid receptors [1]) | Antagonistic Effect D: Sedation (cannabinoid receptors [1]) | Ki (CB1-Receptor) [µM] | Ki (CB2-Receptor) [µM] | Agonistic effect A: Hot-Plate test (cannabinoid receptors [2]) | Agonistic effect B: Hypothermia (cannabinoid receptors [2]) | Agonistic effect C: Catalepsy (cannabinoid receptors [2]) | Agonistic effect D: Sedation (cannabinoid receptors [2])
1 | O=C(NN1CCCCC1)C1=NN(c2ccc(Cl)cc2Cl)C(c2ccc(Cl)cc2)C1 (stereo not shown) [Example 1, N-piperidinyl-5-(4-chlorophenyl)-1-(2,4-dichlorophenyl)-4,5-dihydro-1H-pyrazole-3-carboxamide] | 74 | 100 | 100 | 100 | < 0.025 | > 1 | 0 | 0 | 0 | 0
2 | O=C(C1=NN(c2ccc(Cl)cc2Cl)C(c2ccc(Cl)cc2)C1)N1CCCCC1 (stereo not shown) [Example 5, (5-(4-Chloro-phenyl)-1-(2,4-dichloro-phenyl)-4,5-dihydro-1 H-pyrazol-3-yl]-piperidin-1-yl-methanone] | 50 | 40 | 20 | 20 | – | ~1 | 0 | 50 | 0 | 0
